{
  "source": "ChEMBL document CHEMBL6120974",
  "about": "“Hydrazide-Based Class I Selective HDAC Inhibitors Completely Reverse Chemoresistance Synergistically in Platinum-Resistant Solid Cancer Cells” (J Med Chem, 2024)",
  "key": {"[1]": {"target": "Histone deacetylase 3/Nuclear receptor corepressor 2 (HDAC3/NCoR2) (Homo sapiens, UniProt O15379)", "sequence (O15379 whole entry)": "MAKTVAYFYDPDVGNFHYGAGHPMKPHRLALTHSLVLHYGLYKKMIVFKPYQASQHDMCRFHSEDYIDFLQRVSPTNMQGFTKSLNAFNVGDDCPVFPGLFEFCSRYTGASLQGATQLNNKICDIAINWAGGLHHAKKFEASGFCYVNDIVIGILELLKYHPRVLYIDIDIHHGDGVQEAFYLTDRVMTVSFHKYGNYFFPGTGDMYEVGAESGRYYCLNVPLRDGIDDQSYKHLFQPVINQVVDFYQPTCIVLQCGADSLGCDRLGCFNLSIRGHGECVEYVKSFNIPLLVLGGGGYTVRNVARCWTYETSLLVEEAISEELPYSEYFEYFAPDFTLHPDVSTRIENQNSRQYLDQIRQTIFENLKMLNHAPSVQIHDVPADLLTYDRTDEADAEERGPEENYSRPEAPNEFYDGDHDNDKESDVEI", "sequence (Q9Y618 whole entry, further chain)": "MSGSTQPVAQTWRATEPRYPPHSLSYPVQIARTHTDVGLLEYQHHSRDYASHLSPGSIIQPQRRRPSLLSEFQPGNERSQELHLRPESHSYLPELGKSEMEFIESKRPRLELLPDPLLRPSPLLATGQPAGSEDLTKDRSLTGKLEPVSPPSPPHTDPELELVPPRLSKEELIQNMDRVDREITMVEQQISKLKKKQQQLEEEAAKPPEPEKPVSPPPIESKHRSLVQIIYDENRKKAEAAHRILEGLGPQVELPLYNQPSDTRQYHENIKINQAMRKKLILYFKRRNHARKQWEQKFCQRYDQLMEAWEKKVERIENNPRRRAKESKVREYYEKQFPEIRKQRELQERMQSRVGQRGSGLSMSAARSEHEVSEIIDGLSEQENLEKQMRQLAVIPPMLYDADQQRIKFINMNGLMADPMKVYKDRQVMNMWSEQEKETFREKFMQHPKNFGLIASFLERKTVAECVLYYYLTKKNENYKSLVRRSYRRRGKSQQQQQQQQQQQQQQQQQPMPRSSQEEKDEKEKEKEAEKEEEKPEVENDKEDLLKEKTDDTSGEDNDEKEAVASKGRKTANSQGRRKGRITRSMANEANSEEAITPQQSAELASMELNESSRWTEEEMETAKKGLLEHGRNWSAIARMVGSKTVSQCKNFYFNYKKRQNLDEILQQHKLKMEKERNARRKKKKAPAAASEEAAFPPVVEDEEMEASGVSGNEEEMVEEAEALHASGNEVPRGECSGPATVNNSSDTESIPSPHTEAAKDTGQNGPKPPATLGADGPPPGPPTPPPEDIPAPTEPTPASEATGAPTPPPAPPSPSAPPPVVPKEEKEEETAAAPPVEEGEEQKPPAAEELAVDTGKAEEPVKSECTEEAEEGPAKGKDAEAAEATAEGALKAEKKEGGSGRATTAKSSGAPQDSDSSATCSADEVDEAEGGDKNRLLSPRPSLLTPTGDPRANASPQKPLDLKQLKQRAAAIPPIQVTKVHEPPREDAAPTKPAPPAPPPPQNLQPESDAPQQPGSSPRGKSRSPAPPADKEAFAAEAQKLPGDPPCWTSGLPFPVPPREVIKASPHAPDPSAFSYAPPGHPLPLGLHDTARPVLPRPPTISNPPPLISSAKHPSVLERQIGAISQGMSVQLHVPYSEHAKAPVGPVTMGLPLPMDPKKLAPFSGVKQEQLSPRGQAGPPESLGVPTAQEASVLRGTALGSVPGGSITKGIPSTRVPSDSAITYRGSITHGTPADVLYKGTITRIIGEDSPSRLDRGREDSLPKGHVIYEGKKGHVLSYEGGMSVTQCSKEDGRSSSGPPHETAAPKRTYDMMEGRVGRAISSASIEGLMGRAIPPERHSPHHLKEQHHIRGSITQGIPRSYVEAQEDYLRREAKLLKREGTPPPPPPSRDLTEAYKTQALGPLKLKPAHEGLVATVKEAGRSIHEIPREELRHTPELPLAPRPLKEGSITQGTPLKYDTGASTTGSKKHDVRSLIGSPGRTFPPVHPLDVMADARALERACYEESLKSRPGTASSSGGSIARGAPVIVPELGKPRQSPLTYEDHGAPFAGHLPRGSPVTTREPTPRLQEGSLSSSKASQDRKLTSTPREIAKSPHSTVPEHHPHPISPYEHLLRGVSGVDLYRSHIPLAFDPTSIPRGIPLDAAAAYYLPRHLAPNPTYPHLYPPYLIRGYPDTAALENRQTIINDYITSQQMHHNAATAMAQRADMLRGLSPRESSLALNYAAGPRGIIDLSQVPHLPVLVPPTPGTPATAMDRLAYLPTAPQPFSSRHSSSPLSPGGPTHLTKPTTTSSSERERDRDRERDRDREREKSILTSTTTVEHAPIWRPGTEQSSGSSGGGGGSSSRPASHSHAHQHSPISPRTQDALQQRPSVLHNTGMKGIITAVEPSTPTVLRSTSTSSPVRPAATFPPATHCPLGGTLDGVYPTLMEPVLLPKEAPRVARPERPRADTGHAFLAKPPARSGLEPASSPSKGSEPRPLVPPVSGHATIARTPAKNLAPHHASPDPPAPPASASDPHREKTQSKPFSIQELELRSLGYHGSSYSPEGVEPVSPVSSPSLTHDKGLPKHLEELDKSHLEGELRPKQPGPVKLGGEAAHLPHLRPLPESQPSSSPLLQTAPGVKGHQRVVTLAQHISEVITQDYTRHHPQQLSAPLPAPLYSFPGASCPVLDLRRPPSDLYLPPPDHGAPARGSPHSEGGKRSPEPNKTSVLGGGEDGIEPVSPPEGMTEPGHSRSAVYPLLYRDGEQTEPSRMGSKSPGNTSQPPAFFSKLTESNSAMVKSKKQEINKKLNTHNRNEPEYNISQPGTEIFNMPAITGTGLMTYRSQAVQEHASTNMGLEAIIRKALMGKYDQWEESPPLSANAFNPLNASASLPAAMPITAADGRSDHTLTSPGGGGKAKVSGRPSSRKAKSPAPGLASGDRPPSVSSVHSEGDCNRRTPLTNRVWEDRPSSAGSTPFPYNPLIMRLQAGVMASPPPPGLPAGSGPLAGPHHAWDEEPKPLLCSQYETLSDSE", "format": "cell-based, Sf9"}, "cells [2]": {"experiment": "cells", "conditions": "Homo sapiens, A2780", "description": "Inhibition of class I/6 HDAC (unknown origin) in human A2780 cells using Boc-Lys(epsilon-Ac)-AMC as substrate preincubated with compound for 18 hrs followed by substrate addition and measured after 3 hrs by NOVOstar microplate reader analysis"}, "A2780cisR": {"system": "A2780cisR", "experiment": "cells", "conditions": "Homo sapiens, 72 h"}, "cells [3]": {"experiment": "cells", "conditions": "Homo sapiens, CAL-27", "description": "Inhibition of class I/6 HDAC (unknown origin) in human CAL-27 cells using Boc-Lys(epsilon-Ac)-AMC as substrate preincubated with compound for 18 hrs followed by substrate addition and measured after 3 hrs by NOVOstar microplate reader analysis"}, "cells [4]": {"experiment": "cells", "conditions": "Homo sapiens, A2780cisR", "description": "Inhibition of class I/6 HDAC (unknown origin) in cisplatin resistant human A2780 cisR cells using Boc-Lys(epsilon-Ac)-AMC as substrate preincubated with compound for 18 hrs followed by substrate addition and measured after 3 hrs by NOVOstar microplate reader analysis"}, "[5]": {"target": "T1, Protein deacetylase HDAC6 (Homo sapiens) (UniProt Q9UBN7)", "T1 sequence (whole entry)": "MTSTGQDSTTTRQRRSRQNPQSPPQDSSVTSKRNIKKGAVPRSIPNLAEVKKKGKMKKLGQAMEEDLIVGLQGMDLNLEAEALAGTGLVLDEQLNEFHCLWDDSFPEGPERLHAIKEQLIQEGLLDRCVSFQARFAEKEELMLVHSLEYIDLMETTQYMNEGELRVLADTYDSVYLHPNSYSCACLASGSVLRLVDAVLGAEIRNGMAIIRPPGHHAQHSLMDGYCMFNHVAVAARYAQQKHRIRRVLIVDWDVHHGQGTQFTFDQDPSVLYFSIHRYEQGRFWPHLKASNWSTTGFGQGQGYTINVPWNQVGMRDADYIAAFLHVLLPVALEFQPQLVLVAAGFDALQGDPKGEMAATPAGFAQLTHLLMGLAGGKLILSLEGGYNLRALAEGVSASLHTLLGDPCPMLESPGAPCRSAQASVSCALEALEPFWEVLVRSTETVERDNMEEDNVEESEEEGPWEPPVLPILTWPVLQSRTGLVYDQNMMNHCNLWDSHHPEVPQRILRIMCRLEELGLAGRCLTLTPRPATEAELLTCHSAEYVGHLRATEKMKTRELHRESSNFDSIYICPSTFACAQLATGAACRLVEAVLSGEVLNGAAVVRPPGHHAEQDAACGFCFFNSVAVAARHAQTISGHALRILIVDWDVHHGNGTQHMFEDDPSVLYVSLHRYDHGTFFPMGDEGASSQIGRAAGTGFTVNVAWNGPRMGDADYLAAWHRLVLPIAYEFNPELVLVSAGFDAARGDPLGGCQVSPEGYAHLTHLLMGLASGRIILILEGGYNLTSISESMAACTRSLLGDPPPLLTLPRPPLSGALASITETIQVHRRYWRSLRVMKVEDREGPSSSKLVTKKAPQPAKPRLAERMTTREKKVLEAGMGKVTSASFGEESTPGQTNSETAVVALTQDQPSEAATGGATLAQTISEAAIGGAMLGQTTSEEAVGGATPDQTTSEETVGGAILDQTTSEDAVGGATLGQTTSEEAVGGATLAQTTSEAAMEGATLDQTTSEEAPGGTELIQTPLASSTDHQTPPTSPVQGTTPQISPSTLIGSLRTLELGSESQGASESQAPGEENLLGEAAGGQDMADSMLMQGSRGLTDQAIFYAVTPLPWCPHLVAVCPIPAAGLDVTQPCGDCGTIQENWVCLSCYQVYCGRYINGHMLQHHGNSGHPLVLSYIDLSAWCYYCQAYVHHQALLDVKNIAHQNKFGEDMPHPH", "experiment": "(§1) Inhibition of N-terminal GST-tagged full length recombinant human HDAC6 (1 to 1215 end residues) expressed in sf9 cells at > 3.33 uM using ZMAL (Z-Lys(Ac)-AMC as fluorogenic substrate preincubated with compound for 60 mins followed by substrate addition and measured after 90 mins by fluorescence based microplate reader analysis relative to control"}, "CAL-27": {"system": "CAL-27", "experiment": "cells", "conditions": "Homo sapiens, CAL-27, 72 h", "description": "Cytotoxicity against human CAL-27 cells assessed as reduction in cell viability incubated for 72 hrs by MTT assay"}, "Histone deacetylase 4": {"target": "Histone deacetylase 4 (Homo sapiens, UniProt P56524)", "sequence (P56524 whole entry)": "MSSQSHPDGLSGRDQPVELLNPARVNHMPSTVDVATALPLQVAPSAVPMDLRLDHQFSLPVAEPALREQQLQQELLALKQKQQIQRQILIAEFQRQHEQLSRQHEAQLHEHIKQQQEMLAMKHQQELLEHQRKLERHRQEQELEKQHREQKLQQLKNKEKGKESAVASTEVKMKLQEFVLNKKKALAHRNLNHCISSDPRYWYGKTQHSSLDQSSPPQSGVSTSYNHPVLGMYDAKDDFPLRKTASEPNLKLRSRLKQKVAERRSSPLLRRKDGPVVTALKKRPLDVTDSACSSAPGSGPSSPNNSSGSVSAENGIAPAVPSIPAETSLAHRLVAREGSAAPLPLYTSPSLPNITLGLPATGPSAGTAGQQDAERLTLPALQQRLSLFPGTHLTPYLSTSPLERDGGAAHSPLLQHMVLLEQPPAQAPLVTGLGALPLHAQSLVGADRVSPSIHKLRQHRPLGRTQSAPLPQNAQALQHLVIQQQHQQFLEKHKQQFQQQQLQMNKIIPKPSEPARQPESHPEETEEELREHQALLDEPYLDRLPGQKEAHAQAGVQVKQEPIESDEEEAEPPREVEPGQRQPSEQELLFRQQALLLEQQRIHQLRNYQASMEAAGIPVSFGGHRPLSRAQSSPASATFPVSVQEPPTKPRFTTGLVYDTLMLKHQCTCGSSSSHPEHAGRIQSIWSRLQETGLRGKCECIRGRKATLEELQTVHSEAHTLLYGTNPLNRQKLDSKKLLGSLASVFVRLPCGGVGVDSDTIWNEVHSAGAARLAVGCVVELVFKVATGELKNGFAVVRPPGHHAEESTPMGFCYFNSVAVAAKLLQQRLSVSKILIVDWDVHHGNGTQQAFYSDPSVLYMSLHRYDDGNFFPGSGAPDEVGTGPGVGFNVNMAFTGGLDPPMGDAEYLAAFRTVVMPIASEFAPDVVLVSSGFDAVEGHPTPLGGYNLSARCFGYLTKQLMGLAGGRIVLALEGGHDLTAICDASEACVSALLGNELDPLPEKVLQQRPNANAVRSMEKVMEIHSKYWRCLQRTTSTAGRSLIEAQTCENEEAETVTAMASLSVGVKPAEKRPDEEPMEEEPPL", "experiment": "Inhibition of recombinant HDAC4 (unknown origin) using Bos-Lys(TFA)-AMC as substrate preincubated with compound for 5 mins and measured after 90 mins by NOVOstar microplate reader analysis"}, "cells [6]": {"experiment": "cells", "conditions": "Homo sapiens, Cal27CisR, 72 h", "description": "Cytotoxicity against cisplatin resistant human Cal27CisR cells assessed as reduction in cell viability incubated for 72 hrs by MTT assay"}, "A2780": {"system": "A2780", "experiment": "cells", "conditions": "Homo sapiens, A2780, 72 h", "description": "Cytotoxicity against human A2780 cells assessed as reduction in cell viability incubated for 72 hrs by MTT assay"}, "cells [7]": {"experiment": "cells", "conditions": "Homo sapiens, Cal27CisR", "description": "Inhibition of class I/6 HDAC (unknown origin) in cisplatin resistant human Cal27CisR cells using Boc-Lys(epsilon-Ac)-AMC as substrate preincubated with compound for 18 hrs followed by substrate addition and measured after 3 hrs by NOVOstar microplate reader analysis"}, "[8]": {"target": "T2, Protein deacetylase HDAC6 (Homo sapiens, UniProt Q9UBN7)", "T2 sequence (Q9UBN7 whole entry)": "T1 sequence (whole entry)", "experiment": "as §1, with “cells” for “cells at > 3.33 uM”, “analysis” for “analysis relative to control”"}, "[9]": {"target": "T1, Protein deacetylase HDAC6 (Homo sapiens)", "experiment": "as §1, with “10” for “3.33”", "conditions": "time 150.0 min"}, "cells [10]": {"experiment": "cells", "conditions": "Homo sapiens, A2780", "remark": "listed apart in the source", "description": "Inhibition of class IIa/8 HDAC (unknown origin) in human A2780 cells using Boc-Lys(TFA)-AMC as substrate preincubated with compound for 18 hrs followed by substrate addition and measured after 3 hrs by NOVOstar microplate reader analysis"}, "cells [11]": {"experiment": "cells", "conditions": "Homo sapiens, CAL-27", "remark": "listed apart in the source", "description": "Inhibition of class IIa/8 HDAC (unknown origin) in human CAL-27 cells using Boc-Lys(TFA)-AMC as substrate preincubated with compound for 18 hrs followed by substrate addition and measured after 3 hrs by NOVOstar microplate reader analysis"}, "cells [12]": {"experiment": "cells", "conditions": "Homo sapiens, A2780cisR", "remark": "listed apart in the source", "description": "Inhibition of class IIa/8 HDAC (unknown origin) in cisplatin resistant human A2780 cisR cells using Boc-Lys(TFA)-AMC as substrate preincubated with compound for 18 hrs followed by substrate addition and measured after 3 hrs by NOVOstar microplate reader analysis"}, "cells [13]": {"experiment": "cells", "conditions": "Homo sapiens, Cal27CisR", "remark": "listed apart in the source", "description": "Inhibition of class IIa/8 HDAC (unknown origin) in cisplatin resistant human Cal27CisR cells using Boc-Lys(TFA)-AMC as substrate preincubated with compound for 18 hrs followed by substrate addition and measured after 3 hrs by NOVOstar microplate reader analysis"}},
  "data": [
    {"compound": "CN(C)c1ccc(C(=O)N(CC(=O)NCc2ccccc2)Cc2ccc(C(=O)NNCCCc3ccccc3)cc2)cc1", "values": [
      {"measurement": "IC50", "setting": "[1]", "value": 1.2, "unit": "µM"},
      {"measurement": "IC50", "setting": "cells [2]", "value": 2.21, "unit": "µM"},
      {"measurement": "IC50", "setting": "A2780cisR", "value": 35.5, "unit": "µM"},
      {"measurement": "IC50", "setting": "cells [3]", "value": 2.46, "unit": "µM"},
      {"measurement": "IC50", "setting": "cells [4]", "value": 2.97, "unit": "µM"},
      {"measurement": "inhibition", "setting": "[5]", "value": "< 25", "unit": "%"},
      {"measurement": "IC50", "setting": "CAL-27", "value": 10.3, "unit": "µM"},
      {"measurement": "IC50", "setting": "Histone deacetylase 4", "value": "> 10", "unit": "µM"},
      {"measurement": "IC50", "setting": "cells [6]", "value": 21.6, "unit": "µM"},
      {"measurement": "IC50", "setting": "A2780", "value": 5.9, "unit": "µM"},
      {"measurement": "IC50", "setting": "cells [7]", "value": 1.96, "unit": "µM"},
      {"measurement": "IC50", "setting": "[8]", "value": "> 10", "unit": "µM"}
    ]},
    {"compound": "CC(C)CCNNC(=O)c1ccc(CN(CC(=O)NCc2ccccc2)C(=O)c2ccc(N(C)C)cc2)cc1", "values": [
      {"measurement": "IC50", "setting": "[1]", "value": 0.199, "unit": "µM"},
      {"measurement": "IC50", "setting": "cells [2]", "value": 2.91, "unit": "µM"},
      {"measurement": "IC50", "setting": "A2780cisR", "value": 15.8, "unit": "µM"},
      {"measurement": "IC50", "setting": "cells [3]", "value": 0.83, "unit": "µM"},
      {"measurement": "IC50", "setting": "cells [4]", "value": 2.08, "unit": "µM"},
      {"measurement": "inhibition", "setting": "[9]", "value": "< 25", "unit": "%"},
      {"measurement": "IC50", "setting": "CAL-27", "value": 3.41, "unit": "µM"},
      {"measurement": "IC50", "setting": "Histone deacetylase 4", "value": "> 10", "unit": "µM"},
      {"measurement": "IC50", "setting": "cells [6]", "value": 8.5, "unit": "µM"},
      {"measurement": "IC50", "setting": "A2780", "value": 4.94, "unit": "µM"},
      {"measurement": "IC50", "setting": "cells [7]", "value": 0.931, "unit": "µM"},
      {"measurement": "IC50", "setting": "[8]", "value": "> 10", "unit": "µM"}
    ]},
    {"compound": "CCCCCNNC(=O)c1ccc(CN(CC(=O)NCc2ccccc2)C(=O)c2ccc(N(C)C)cc2)cc1", "values": [
      {"measurement": "IC50", "setting": "[1]", "value": 0.072, "unit": "µM"},
      {"measurement": "IC50", "setting": "cells [2]", "value": 0.273, "unit": "µM"},
      {"measurement": "IC50", "setting": "A2780cisR", "value": 3.38, "unit": "µM"},
      {"measurement": "IC50", "setting": "cells [3]", "value": 0.264, "unit": "µM"},
      {"measurement": "IC50", "setting": "cells [4]", "value": 0.334, "unit": "µM"},
      {"measurement": "inhibition", "setting": "[5]", "value": "< 25", "unit": "%"},
      {"measurement": "IC50", "setting": "CAL-27", "value": 0.843, "unit": "µM"},
      {"measurement": "IC50", "setting": "Histone deacetylase 4", "value": "> 10", "unit": "µM"},
      {"measurement": "IC50", "setting": "cells [6]", "value": 1.5, "unit": "µM"},
      {"measurement": "IC50", "setting": "A2780", "value": 0.675, "unit": "µM"},
      {"measurement": "IC50", "setting": "cells [7]", "value": 0.218, "unit": "µM"},
      {"measurement": "IC50", "setting": "[8]", "value": "> 3.33", "unit": "µM"}
    ]},
    {"compound": "CN(C)c1ccc(C(=O)N(CC(=O)NCc2ccccc2)Cc2ccc(C(=O)NNCC3CC3)cc2)cc1", "values": [
      {"measurement": "IC50", "setting": "cells [2]", "value": 0.722, "unit": "µM"},
      {"measurement": "IC50", "setting": "A2780cisR", "value": 9.08, "unit": "µM"},
      {"measurement": "IC50", "setting": "cells [3]", "value": 0.388, "unit": "µM"},
      {"measurement": "IC50", "setting": "cells [4]", "value": 0.974, "unit": "µM"},
      {"measurement": "inhibition", "setting": "[9]", "value": "< 25", "unit": "%"},
      {"measurement": "IC50", "setting": "cells [10]", "value": 8.56, "unit": "µM"},
      {"measurement": "IC50", "setting": "cells [11]", "value": 2.97, "unit": "µM"},
      {"measurement": "IC50", "setting": "CAL-27", "value": 1.99, "unit": "µM"},
      {"measurement": "IC50", "setting": "Histone deacetylase 4", "value": "> 10", "unit": "µM"},
      {"measurement": "IC50", "setting": "cells [6]", "value": 2.67, "unit": "µM"},
      {"measurement": "IC50", "setting": "A2780", "value": 2.61, "unit": "µM"},
      {"measurement": "IC50", "setting": "cells [12]", "value": 11.9, "unit": "µM"},
      {"measurement": "IC50", "setting": "cells [13]", "value": 1.28, "unit": "µM"},
      {"measurement": "IC50", "setting": "cells [7]", "value": 0.392, "unit": "µM"},
      {"measurement": "IC50", "setting": "[8]", "value": "> 10", "unit": "µM"}
    ]}
  ]
}
